In paper PMC5068747, “Using C. elegans Forward and Reverse Genetics to Identify New Compounds with Anthelmintic Activity” (PLoS Neglected Tropical Diseases, 2016):

System: C. elegans RB2119 (acr-23(ok2804), monepantel-resistant)
Test: IC50 on amino-acetonitrile resistant C. elegans strain
Format: in vivo, Caenorhabditis elegans
Details: Caenorhabditis elegans, 120 h; 5 days exposure, 2 L4 per well, three biological replicates; read-out: IC50, strain RB2119 (amino-acetonitriles)

COc1ccc(OCCNC(=O)c2ccccc2C(F)(F)F)cc1 [CID 2747322, N-[2-(4-methoxyphenoxy)ethyl]-2-(trifluoromethyl)benzamide] was tested. Which IC50 did it give?
Its IC50 is 5 µM.
